Patent US8329950B2, “Process for preparation of trans 4-(3,4-Dichlorophenyl)-1,2,3,4-tetrahydro-1Napthalenamine” (Sunovion Pharmaceuticals Inc., priority 2005, dated 2012)

Assays:
[1] = tested on: women with insomnia secondary to perimenopause or menopause; assay: Clinical study, Physician Global Assessment; assay type: in vivo, human; details: Visit 5 (Week 4), 3 mg nightly; for Physician Global Assessment, Observed Value, Least Squares Means (SE): ANOVA
Protocol: (§1) The study was aimed at observing efficacy of eszopiclone 3 mg compared to placebo in the treatment of insomnia secondary to perimenopause or menopause.
(§2) The study was a multicenter, randomized, double-blind, placebo-controlled, parallel-group study. […] The primary method of analysis compared the post-randomization results between the two treatment groups.
(§3) Subjects were women with insomnia secondary to perimenopause or menopause. Subjects were perimenopausal or menopausal and had insomnia symptoms including ≧45 minutes sleep latency (SL) and total sleep time (TST)≦6 hours. Perimenopausal/menopausal symptoms predated the onset of sleep disturbance symptoms. The patient population was predominately Caucasian (77.2%). The mean age was 49, with a range of 40-60.
(§4) A total of 410 subjects were randomized. Among them, 201 received 3 mg of eszopiclone (ESZ) nightly (at bedtime) for four weeks and 209 received matching placebo (PBO).
A Physician Global Assessment was administered at Week 4, the end of the double-blind treatment period.

[2] = tested on: women with insomnia secondary to perimenopause or menopause; assay: Clinical study, number of nocturnal awakenings due to hot flashes; assay type: in vivo, human; details: 3 mg nightly, Intent-to-Treat; for Nocturnal Awakenings due to Hot Flashes, Change from Baseline, Least Squares Means (SE): ANCOVA; for Nocturnal Awakenings due to Hot Flashes, Observed Value, Least Squares Means (SE): ANOVA
Protocol: as §1, §2, §3, §4

[3] = score 1 = Very much improved to 7 = Very much worse

CN1CCN(C(=O)O[C@H]2c3nccnc3C(=O)N2c2ccc(Cl)cn2)CC1 [Eszopiclone, (+) 6-(5-chloropyrid-2-yl)-5-(4-methylpiperazin-1-yl)carbonyloxy-7-oxo-6,7-dihydro-5H-pyrrolo[3-4-b]pyrazine]
Physician Global Assessment, Change from Baseline, 25th Percentile [1]: −2.0
Physician Global Assessment, Change from Baseline, 75th Percentile [1]: 0.0
Physician Global Assessment, Change from Baseline, Maximum [1]: 6.0
Physician Global Assessment, Change from Baseline, Mean (SD) [1]: −1.0 (1.4)
Physician Global Assessment, Change from Baseline, Median [1]: −1.0
Physician Global Assessment, Change from Baseline, Minimum [1]: −4.0
Physician Global Assessment, Change from Baseline, Least Squares Means (SE) ([1]; ANCOVA): −0.9 (0.1)
Physician Global Assessment, Observed Value, Least Squares Means (SE) [1]: 2.7 (0.1)
Physician Global Assessment, Observed Value, Least Squares Means (SE) ([1]; listed as ESZ): 2.7
Physician Global Assessment, Observed Value, 25th Percentile [1, 3]: 2.0
Physician Global Assessment, Observed Value, 75th Percentile [1, 3]: 4.0
Physician Global Assessment, Observed Value, Maximum [1, 3]: 6.0
Physician Global Assessment, Observed Value, Mean (SD) [1, 3]: 2.6 (1.2)
Physician Global Assessment, Observed Value, Median [1, 3]: 2.0
Physician Global Assessment, Observed Value, Minimum [1, 3]: 1.0
Nocturnal Awakenings due to Hot Flashes, Change from Baseline, 25th Percentile ([2]; DB Average): −1.1
Nocturnal Awakenings due to Hot Flashes, Change from Baseline, 75th Percentile ([2]; DB Average): 0.0
Nocturnal Awakenings due to Hot Flashes, Change from Baseline, Maximum ([2]; DB Average): 1.5
Nocturnal Awakenings due to Hot Flashes, Change from Baseline, Mean (SD) ([2]; DB Average): −0.7 (1.0)
Nocturnal Awakenings due to Hot Flashes, Change from Baseline, Median ([2]; DB Average): −0.5
Nocturnal Awakenings due to Hot Flashes, Change from Baseline, Minimum ([2]; DB Average): −6.0
Nocturnal Awakenings due to Hot Flashes, Observed Value, 25th Percentile ([2]; DB Average): 0.0
Nocturnal Awakenings due to Hot Flashes, Observed Value, 75th Percentile ([2]; DB Average): 0.9
Nocturnal Awakenings due to Hot Flashes, Observed Value, Maximum ([2]; DB Average): 2.7
Nocturnal Awakenings due to Hot Flashes, Observed Value, Mean (SD) ([2]; DB Average): 0.5 (0.6)
Nocturnal Awakenings due to Hot Flashes, Observed Value, Median ([2]; DB Average): 0.2
Nocturnal Awakenings due to Hot Flashes, Observed Value, Minimum ([2]; DB Average): 0.0
Nocturnal Awakenings due to Hot Flashes, Change from Baseline, Least Squares Means (SE) ([2]; DB Average): −0.7 (0.1)
Nocturnal Awakenings due to Hot Flashes, Observed Value, Least Squares Means (SE) ([2]; DB Average): 0.5 (0.1)
Nocturnal Awakenings due to Hot Flashes, Change from Baseline, 25th Percentile ([2]; Week 1): −1.2
Nocturnal Awakenings due to Hot Flashes, Change from Baseline, 75th Percentile ([2]; Week 1): 0.0
Nocturnal Awakenings due to Hot Flashes, Change from Baseline, Maximum ([2]; Week 1): 0.8
Nocturnal Awakenings due to Hot Flashes, Change from Baseline, Mean (SD) ([2]; Week 1): −0.7 (1.0)
Nocturnal Awakenings due to Hot Flashes, Change from Baseline, Median ([2]; Week 1): −0.5
Nocturnal Awakenings due to Hot Flashes, Change from Baseline, Minimum ([2]; Week 1): −6.0
Nocturnal Awakenings due to Hot Flashes, Observed Value, 25th Percentile ([2]; Week 1): 0.0
Nocturnal Awakenings due to Hot Flashes, Observed Value, 75th Percentile ([2]; Week 1): 1.0
Nocturnal Awakenings due to Hot Flashes, Observed Value, Maximum ([2]; Week 1): 3.0
Nocturnal Awakenings due to Hot Flashes, Observed Value, Mean (SD) ([2]; Week 1): 0.5 (0.7)
Nocturnal Awakenings due to Hot Flashes, Observed Value, Median ([2]; Week 1): 0.2
Nocturnal Awakenings due to Hot Flashes, Observed Value, Minimum ([2]; Week 1): 0.0
Nocturnal Awakenings due to Hot Flashes, Change from Baseline, Least Squares Means (SE) ([2]; Week 1): −0.7 (0.1)
Nocturnal Awakenings due to Hot Flashes, Observed Value, Least Squares Means (SE) ([2]; Week 1): 0.5 (0.1)
Nocturnal Awakenings due to Hot Flashes, Observed Value, Least Squares Means (SE) ([2]; Week 1, listed as ESZ): 0.3
Nocturnal Awakenings due to Hot Flashes, Change from Baseline, 25th Percentile ([2]; Week 2): −1.0
Nocturnal Awakenings due to Hot Flashes, Change from Baseline, 75th Percentile ([2]; Week 2): 0.0
Nocturnal Awakenings due to Hot Flashes, Change from Baseline, Maximum ([2]; Week 2): 2.0
Nocturnal Awakenings due to Hot Flashes, Change from Baseline, Mean (SD) ([2]; Week 2): −0.7 (1.0)
Nocturnal Awakenings due to Hot Flashes, Change from Baseline, Median ([2]; Week 2): −0.6
Nocturnal Awakenings due to Hot Flashes, Change from Baseline, Minimum ([2]; Week 2): −6.0
Nocturnal Awakenings due to Hot Flashes, Observed Value, 25th Percentile ([2]; Week 2): 0.0
Nocturnal Awakenings due to Hot Flashes, Observed Value, 75th Percentile ([2]; Week 2): 1.0
Nocturnal Awakenings due to Hot Flashes, Observed Value, Maximum ([2]; Week 2): 3.0
Nocturnal Awakenings due to Hot Flashes, Observed Value, Mean (SD) ([2]; Week 2): 0.5 (0.7)
Nocturnal Awakenings due to Hot Flashes, Observed Value, Median ([2]; Week 2): 0.0
Nocturnal Awakenings due to Hot Flashes, Observed Value, Minimum ([2]; Week 2): 0.0
Nocturnal Awakenings due to Hot Flashes, Change from Baseline, Least Squares Means (SE) ([2]; Week 2): −0.6 (0.1)
Nocturnal Awakenings due to Hot Flashes, Observed Value, Least Squares Means (SE) ([2]; Week 2): 0.5 (0.1)
Nocturnal Awakenings due to Hot Flashes, Change from Baseline, 25th Percentile ([2]; Week 3): −1.0
Nocturnal Awakenings due to Hot Flashes, Change from Baseline, 75th Percentile ([2]; Week 3): 0.0
Nocturnal Awakenings due to Hot Flashes, Change from Baseline, Maximum ([2]; Week 3): 1.5
Nocturnal Awakenings due to Hot Flashes, Change from Baseline, Mean (SD) ([2]; Week 3): −0.7 (1.1)
Nocturnal Awakenings due to Hot Flashes, Change from Baseline, Median ([2]; Week 3): −0.4
Nocturnal Awakenings due to Hot Flashes, Change from Baseline, Minimum ([2]; Week 3): −6.0
Nocturnal Awakenings due to Hot Flashes, Observed Value, 25th Percentile ([2]; Week 3): 0.0
Nocturnal Awakenings due to Hot Flashes, Observed Value, 75th Percentile ([2]; Week 3): 1.0
Nocturnal Awakenings due to Hot Flashes, Observed Value, Maximum ([2]; Week 3): 3.0
Nocturnal Awakenings due to Hot Flashes, Observed Value, Mean (SD) ([2]; Week 3): 0.5 (0.7)
Nocturnal Awakenings due to Hot Flashes, Observed Value, Median ([2]; Week 3): 0.0
Nocturnal Awakenings due to Hot Flashes, Observed Value, Minimum ([2]; Week 3): 0.0
Nocturnal Awakenings due to Hot Flashes, Change from Baseline, Least Squares Means (SE) ([2]; Week 3): −0.6 (0.1)
Nocturnal Awakenings due to Hot Flashes, Observed Value, Least Squares Means (SE) ([2]; Week 3): 0.5 (0.1)
Nocturnal Awakenings due to Hot Flashes, Change from Baseline, 25th Percentile ([2]; Week 4): −1.3
Nocturnal Awakenings due to Hot Flashes, Change from Baseline, 75th Percentile ([2]; Week 4): 0.0
Nocturnal Awakenings due to Hot Flashes, Change from Baseline, Maximum ([2]; Week 4): 2.1
Nocturnal Awakenings due to Hot Flashes, Change from Baseline, Mean (SD) ([2]; Week 4): −0.8 (1.2)
Nocturnal Awakenings due to Hot Flashes, Change from Baseline, Median ([2]; Week 4): −0.7
Nocturnal Awakenings due to Hot Flashes, Change from Baseline, Minimum ([2]; Week 4): −6.0
Nocturnal Awakenings due to Hot Flashes, Observed Value, 25th Percentile ([2]; Week 4): 0.0
Nocturnal Awakenings due to Hot Flashes, Observed Value, 75th Percentile ([2]; Week 4): 1.0
Nocturnal Awakenings due to Hot Flashes, Observed Value, Maximum ([2]; Week 4): 3.6
Nocturnal Awakenings due to Hot Flashes, Observed Value, Mean (SD) ([2]; Week 4): 0.4 (0.7)
Nocturnal Awakenings due to Hot Flashes, Observed Value, Median ([2]; Week 4): 0.0
Nocturnal Awakenings due to Hot Flashes, Observed Value, Minimum ([2]; Week 4): 0.0
Nocturnal Awakenings due to Hot Flashes, Change from Baseline, Least Squares Means (SE) ([2]; Week 4): −0.7 (0.1)
Nocturnal Awakenings due to Hot Flashes, Observed Value, Least Squares Means (SE) ([2]; Week 4): 0.4 (0.1)
